Values joined by “and” are separate entries in the source; they are usually repeats but may differ in a detail not shown here. Equal values may be shown once.
How the values were obtained:
[1] = test system: Human KB-31 epidermoid carcinoma cells; experiment: Proliferation inhibition of KB-31 cells (methylene blue staining); assay type: cell-based; conditions: KB-31 cell line, four days incubation with compound, repeated lines are separate determinations
Description: (§1) Stock solutions of the test compound of formula I 10 mM) in DMSO are prepared and stored at −20° C. Human KB-31 and (multidrug-resistant, P-gp 170 overexpressing) KB-8511 epidermoid carcinoma cells are from Dr. M. Baker, Roswell Park Memorial Institute (Buffalo, N.Y., USA) (for description see also Akiyama et al., Somat. Cell. Mol. Genetics 11, 117-126 (1985) und Fojo A., et al., Cancer Res. 45, 3002-3007 (1985)—KB-31 und KB-851 I both are derivatives of the KB-cell line (American Type Culture Collection) and are human epidermoid carcinoma cells. KB-31 cells can be cultivated in mono-layers using calf serum (M.A. Bio-products), L-glutamine (Flow), penicillin (50 Units/ml) und streptomycin (50 μg/ml (Flow); they then grow with a doubling rate of about 22 hours, and the relative efficiency of plating them out lies at about 60%. […] The cells are incubated at 37° C. in an incubator with 5% V/V CO2 and at 80% relative atmospheric humidity in MEM Alpha-medium which contains ribonucleosides und desoxyribonucleosides (Gibco BRL), complemented with 10 IU Penicillin, 10 μg/ml Streptomycin and 5% fetal calf serum. The cells are spread in an amount of 1.5×10^3 cells/well in 96-well-microtiter plates and incubated overnight. Serial dilutions of the test compounds in culture medium are added at day 1. The plates are then incubated for an additional period of four days, after which the cells are fixed using 3.3% v/v glutaraldehyde washed with water and finally stained with 0.05% w/v methylene blue. After washing again, the stain is eluted with 3% HCl and the optical density at 665 nm is measured with a SpectraMax 340 (Molecular Devices, Sunnyvale, Calif.). IC50-values are determined by mathematically fitting the data to curves using the SoftPro2.0 program (Molecular Devices, Sunnyvale, Calif.) and the formula […]/[(OD control)−(OD start)]×100.
(§2) The IC50 is defined as the concentration of a test compound at the end of the incubation period that leads to 50% of the number of cells in comparison to controls without test compound (concentration at halfmaximal inhibition of cell growth).
(§3) Proliferation inhibition (IC50) of epothilone derivatives (Examples 1-16) towards KB-31 and KB-8511 cell lines. Method as described above.

[2] = test system: (multidrug-resistant, P-gp 170 overexpressing) KB-8511 epidermoid carcinoma cells; experiment: Proliferation inhibition of KB-8511 cells (methylene blue staining); assay type: cell-based, human; conditions: KB-8511 cell line (multidrug-resistant, P-gp 170 overexpressing), four days incubation with compound, repeated lines are separate determinations
Description: as §1, §2, §3

Compound	IC50 ([1]; Homo sapiens, KB 3-1, 96 h) [nM]	IC50 ([2]; Homo sapiens, 96 h) [nM]	IC50 [1]	IC50 [2]
C/C1=C/C[C@@H](/C(C)=C/c2csc(C)n2)OC(=O)CCC(C)(C)C(=O)[C@H](C)[C@@H](O)[C@@H](C)CCC1 [Example 1, (Z)-(7R,8S,9S,16S)-8-Hydroxy-5,5,7,9,13-pentamethyl-16-[(E)-1-methyl-2-(2-methyl-thiazol-4-yl)-vinyl]-oxacyclohexadec-13-ene-2,6-dione]	106	75.4		
Cc1nc2cc([C@@H]3C[C@@H]4O[C@H]4CCC[C@H](C)[C@H](O)[C@@H](C)C(=O)C(C)(C)/C=C/C(=O)O3)ccc2n1C [Example 14, (E)-(1S,3S,10R,11S,12S,16S)-3-(1,2-Dimethyl-1H-benzoimidazol-5-yl)-11-hydroxy-8,8,10,12-tetramethyl-4,17-dioxa-bicyclo[14.1.0]heptadec-6-ene-5,9-dione]	5	12.4	3.5 nM	9.92 nM
Cc1nc2cc([C@@H]3C[C@@H]4C[C@@H]4CCC[C@H](C)[C@H](O)[C@@H](C)C(=O)C(C)(C)[C@@H](O)CC(=O)O3)ccc2n1C (stereo in doubt) [Example 15, 3-(1,2-Dimethyl-1H-benzoimidazol-5-yl)-7,11-dihydroxy-8,8,10,12-tetramethyl-4-oxa-bicyclo[14.1.0]heptadecane-5,9-dione]	0.467	1.01		
Cc1nc2cc([C@@H]3C/C=C/CCC[C@H](C)[C@H](O)[C@@H](C)C(=O)C(C)(C)[C@@H](O)CC(=O)O3)ccc2n1C [Example 11, (E)-(4S,7R,8S,9S,16S)-16-(1,2-Dimethyl-1H-benzoimidazol-5-yl)-4,8-dihydroxy-5,5,7,9-tetramethyl-oxacyclohexadec-13-ene-2,6-dione]		25.1		36.6 nM and 37 nM
C/C(=C\c1csc(C)n1)[C@@H]1C[C@@H]2O[C@]2(C)CCC[C@H](C)[C@H](O)[C@@H](C)C(=O)C(C)(C)CCC(=O)O1 [Example 2, (1S,3S,10R,11S,12S,16R)-11-Hydroxy-8,8,10,12,16-pentamethyl-3-[(E)-1-methyl-2-(2-methyl-thiazol-4-yl)-vinyl]-4,17-dioxa-bicyclo[14.1.0]heptadecane-5,9-dione]	5.12	2.18		
Cc1nc2cc([C@@H]3C[C@@H]4C[C@H]4CCC[C@H](C)[C@H](O)[C@@H](C)C(=O)C(C)(C)[C@@H](O)CC(=O)O3)ccc2n1C [Example 16, (1S,3S,7S,10R,11S,12S,16R)-3-(1,2-Dimethyl-1H-benzoimidazol-5-yl)-7,11-dihydroxy-8,8,10,12-tetramethyl-4-oxa-bicyclo[14.1.0]heptadecane-5,9-dione]	0.149	0.11		
Cc1nc2cc([C@@H]3C[C@@H]4O[C@H]4CCC[C@H](C)[C@H](O)[C@@H](C)C(=O)C(C)(C)[C@@H](O)CC(=O)O3)ccc2n1C [Example 12, (1S,3S,7S,10R,11S,12S,16S)-3-(1,2-Dimethyl-1H-benzoimidazol-5-yl)-7,11-dihydroxy-8,8,10,12-tetramethyl-4,17-dioxa-bicyclo[14.1.0]heptadecane-5,9-dione]	0.27	1.45	0.24 nM and 0.228 nM	1.67 nM and 0.96 nM
Cc1nc2cc([C@@H]3C/C=C/CCC[C@H](C)[C@H](O)[C@@H](C)C(=O)C(C)(C)/C=C/C(=O)O3)ccc2n1C [Example 13, (3E,13E)-(7R,8S,9S,16S)-16-(1,2-Dimethyl-1H-benzoimidazol-5-yl)-8-hydroxy-5,5,7,9-tetramethyl-oxacyclohexadeca-3,13-diene-2,6-dione]	144	74.1	138 nM and 152 nM	68.8 nM and 73.5 nM
Cc1nc2cc([C@@H]3C[C@@H]4O[C@H]4CCC[C@H](C)[C@H](O)[C@@H](C)C(=O)C(C)(C)CCC(=O)O3)ccc2n1C [Example 8, (1S,3S,10R,11S,12S,16S)-3-(1,2-Dimethyl-1H-benzoimidazol-5-yl)-11-hydroxy-8,8,10,12-tetramethyl-4,17-dioxa-bicyclo[14.1.0]heptadecane-5,9-dione]	2.76	5.83		
Cc1nc2cc([C@@H]3C/C=C/CCC[C@H](C)[C@H](O)[C@@H](C)C(=O)C(C)(C)CCC(=O)O3)ccc2n1C [Example 7, (E)-(7R,8S,9S,16S)-16-(1,2-Dimethyl-1H-benzoimidazol-5-yl)-8-hydroxy-5,5,7,9-tetramethyl-oxacyclohexadec-13-ene-2,6-dione]	39.1	50.2	41.9 nM	49.9 nM
Cc1nc2cc([C@@H]3C/C=C\CCC[C@H](C)[C@H](O)[C@@H](C)C(=O)C(C)(C)CCC(=O)O3)ccc2n1C [Example 3, 16-(1,2-Dimethyl-1H-benzoimidazol-5-yl)-8-hydroxy-5,5,7,9-tetramethyl-oxacyclohexadec-13-ene-2,6-dione]	54.9	50.4	62 nM	62.3 nM
Cc1nc2cc([C@@H]3C[C@@H]4O[C@]4(C)CCC[C@H](C)[C@H](O)[C@@H](C)C(=O)C(C)(C)CCC(=O)O3)ccc2n1C [Example 6, (1S,3S,10R,11S,12S,16R)-3-(1,2-Dimethyl-1H-benzoimidazol-5-yl)-11-hydroxy-8,8,10,12,16-pentamethyl-4,17-dioxa-bicyclo[14.1.0]heptadecane-5,9-dione]		< 2		1.61 nM
Cc1nc2cc([C@@H]3C[C@@H]4O[C@@H]4CCC[C@H](C)[C@H](O)[C@@H](C)C(=O)C(C)(C)CCC(=O)O3)ccc2n1C [Example 4, 3-(1,2-Dimethyl-1H-benzoimidazol-5-yl)-11-hydroxy-8,8,10,12-tetramethyl-4,17-dioxa-bicyclo[14.1.0]heptadecane-5,9-dione]	6.56	36.6	7.95 nM and 7.65 nM	39.2 nM and 37.1 nM

Reference: US7825141B2, “Epothilone derivatives” (Novartis AG, priority 2004, dated 2010)
